According to PMC12566624, “A Second Opportunity for the Peptide-Based Analogues with γ-Lactam at the P1 Position: Human Cathepsin S Inhibition” (Pharmaceuticals, 2025):

biological target: T1, human cathepsin S (hCatS) (Homo sapiens, UniProt P25774); experiment: fluorogenic enzyme inhibition assay, Cbz-Val-Val-Arg-AMC substrate; Ki from IC50; type: biochemical
T1 construct: gene CTSS
T1 sequence (P25774 115-331): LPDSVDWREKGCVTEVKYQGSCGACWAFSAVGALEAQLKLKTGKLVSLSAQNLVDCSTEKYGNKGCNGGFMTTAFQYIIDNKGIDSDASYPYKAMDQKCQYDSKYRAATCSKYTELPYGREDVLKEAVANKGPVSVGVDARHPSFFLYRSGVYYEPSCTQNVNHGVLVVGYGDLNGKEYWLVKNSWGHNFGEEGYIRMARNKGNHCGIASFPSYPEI

Which Ki does the source give for `CCCC[C@H](NC(=O)OCc1ccccc1)C(=O)N[C@H](/C=C/C(C)=O)C[C@@H]1CCNC1=O` [SPR38] here?
Its Ki is 58.8 ± 3.6 nM.

For `CC(=O)/C=C/[C@H](C[C@@H]1CCNC1=O)NC(=O)[C@H](CC1CC1)NC(=O)OCc1ccccc1` [SPR39], which Ki is on record?
Its Ki is 45.1 ± 3.8 nM.

With `CC(=O)/C=C/[C@H](C[C@@H]1CCNC1=O)NC(=O)[C@H](CC1CCCCC1)NC(=O)OCc1ccccc1` [SPR41] as the compound, how does the Ki read?
The Ki was 10.7 ± 1.1 nM.
